Laboratory results: patent publication US8962637B2, “Bicyclic compounds and their uses as dual c-SRC/JAK inhibitors” (Debiopharm S.A., priority 2010, dated 2015)

Experiments:
JAK1 = JAK1 (Homo sapiens (Human), UniProt P23458); assay: JAK1 kinase inhibition; type: biochemical; conditions: for inhibition at 0.1 µM: read-out: JAK1 % inhibition at 100 nM; for inhibition at 1 µM: read-out: JAK1 % inhibition at 1 μM
c-Src = c-Src (Homo sapiens (Human), UniProt P12931); assay: TR-FRET c-Src kinase assay; type: biochemical; conditions: ATP 50 μM
Description: (§1) Compounds were screened in the TR-FRET assay for JAK2 and c-Src kinase inhibition. Ultra light poly GT (Perkin Elmer) was used as the substrate for JAK2 and c-Src with the ATP concentration of 10 μM and 50 μM, respectively. […] The dose-response curve fitting was done using GraphPad Prism software.

JAK2 = JAK2 (Homo sapiens (Human), UniProt O60674); assay: TR-FRET JAK2 kinase assay; type: biochemical; conditions: ATP 10 μM; for inhibition at 0.1 µM: read-out: JAK2 % inhibition at 100 nM, 100 nM; for inhibition at 1 µM: read-out: JAK2 % inhibition at 1 μM
Description: as §1

A431 cancer cell line = assay: Inhibition of cell growth in A431; type: cell-based; conditions: Homo sapiens, A-431
Mda-Mb-231 cells = assay: Cell viability assay (XTT assay), Mda-Mb-231; type: cell-based; conditions: Homo sapiens, 72 hrs
Description: Mda-Mb-231 or A549 cells were seeded onto a 96-well micro plate. Next day compounds were added to cells and incubated for 72 hrs. Compound treatment was done in triplicates. After 72 hrs cell culture media was aspirated from the wells and XTT working solution was added and plates were incubated for 2-5 hrs. The absorbance of the samples was measured with a spectrophotometer at a wavelength of 465 nm. EC50 values were calculated using Graphpad Prism. Tumor cell lines used in the examples of the present invention were procured from ATCC. Description of the cell lines is included in the following table: […]

pStat3 = assay: In-Cell-Western blot assay for pStat3 (ICW) in A431 cells; type: cell-based; conditions: Homo sapiens, A-431, 2 hrs, read-out: pSTAT3 inhibition
Description: A431 cells were seeded onto a 96-well micro plate. After overnight serum starvation cells were incubated with compounds for 2 hrs. Cells were fixed with 4% paraformaldehyde in PBS and then permeabilized with 0.1% Triton X-100 in PBS (PBST). Cells were blocked with 5% BSA in PBST for 2 hrs, followed by overnight incubation with phospho Stat3 antibody. Cells were washed and incubated with europium-labeled anti-rabbit secondary antibody for 2 hrs. After washing enhancement solution was added to the wells. The micro-plate was read on the Victor instrument at the Europium setting. The Hoechst readings were used to normalize for cell number. IC50 values were calculated with the normalized europium values using Graphpad Prism.

c-Src, sequence (P12931 whole entry, looked up): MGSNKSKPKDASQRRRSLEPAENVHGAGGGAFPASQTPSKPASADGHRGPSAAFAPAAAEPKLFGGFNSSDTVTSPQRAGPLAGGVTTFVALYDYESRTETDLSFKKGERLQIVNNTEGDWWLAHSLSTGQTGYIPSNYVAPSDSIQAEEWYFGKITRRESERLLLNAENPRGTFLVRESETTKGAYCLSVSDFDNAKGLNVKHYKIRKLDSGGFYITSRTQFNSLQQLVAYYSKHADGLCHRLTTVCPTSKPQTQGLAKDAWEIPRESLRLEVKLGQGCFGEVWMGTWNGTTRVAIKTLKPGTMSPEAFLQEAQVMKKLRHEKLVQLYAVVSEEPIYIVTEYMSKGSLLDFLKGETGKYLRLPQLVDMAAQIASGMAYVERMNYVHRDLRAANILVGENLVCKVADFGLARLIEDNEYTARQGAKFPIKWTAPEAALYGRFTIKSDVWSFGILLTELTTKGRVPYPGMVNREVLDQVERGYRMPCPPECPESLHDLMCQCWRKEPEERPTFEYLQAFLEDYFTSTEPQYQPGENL
JAK1, sequence (P23458 whole entry): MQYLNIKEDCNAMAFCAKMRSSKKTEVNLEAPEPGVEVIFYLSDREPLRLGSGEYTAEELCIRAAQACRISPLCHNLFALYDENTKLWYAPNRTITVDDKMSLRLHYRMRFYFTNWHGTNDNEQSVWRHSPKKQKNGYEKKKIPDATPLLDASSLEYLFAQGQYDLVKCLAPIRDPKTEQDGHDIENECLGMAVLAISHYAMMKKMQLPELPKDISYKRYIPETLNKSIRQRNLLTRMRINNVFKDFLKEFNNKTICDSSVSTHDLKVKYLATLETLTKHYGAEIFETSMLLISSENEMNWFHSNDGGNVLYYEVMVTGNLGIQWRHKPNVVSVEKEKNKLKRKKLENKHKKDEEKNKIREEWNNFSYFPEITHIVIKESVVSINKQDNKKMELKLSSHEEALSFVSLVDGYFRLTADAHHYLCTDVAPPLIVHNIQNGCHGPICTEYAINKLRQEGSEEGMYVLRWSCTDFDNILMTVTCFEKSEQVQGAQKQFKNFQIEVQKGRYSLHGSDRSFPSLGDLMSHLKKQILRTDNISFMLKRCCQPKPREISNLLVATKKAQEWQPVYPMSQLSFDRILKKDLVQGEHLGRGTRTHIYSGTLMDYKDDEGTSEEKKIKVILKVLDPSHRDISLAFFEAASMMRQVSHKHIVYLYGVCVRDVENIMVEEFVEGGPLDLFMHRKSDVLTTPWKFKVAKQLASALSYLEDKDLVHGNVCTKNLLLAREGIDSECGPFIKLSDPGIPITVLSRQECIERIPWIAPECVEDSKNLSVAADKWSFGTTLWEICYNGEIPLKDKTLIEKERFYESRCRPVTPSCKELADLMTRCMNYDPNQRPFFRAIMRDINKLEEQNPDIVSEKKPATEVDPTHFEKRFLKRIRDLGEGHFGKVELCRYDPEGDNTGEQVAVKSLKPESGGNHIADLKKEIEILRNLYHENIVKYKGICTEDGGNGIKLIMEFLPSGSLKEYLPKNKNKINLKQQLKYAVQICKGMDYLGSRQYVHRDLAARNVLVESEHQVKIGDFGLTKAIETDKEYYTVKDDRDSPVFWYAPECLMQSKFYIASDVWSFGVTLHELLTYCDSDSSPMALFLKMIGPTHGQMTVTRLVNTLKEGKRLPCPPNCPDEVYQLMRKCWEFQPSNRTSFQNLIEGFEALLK
JAK2, sequence (O60674 whole entry): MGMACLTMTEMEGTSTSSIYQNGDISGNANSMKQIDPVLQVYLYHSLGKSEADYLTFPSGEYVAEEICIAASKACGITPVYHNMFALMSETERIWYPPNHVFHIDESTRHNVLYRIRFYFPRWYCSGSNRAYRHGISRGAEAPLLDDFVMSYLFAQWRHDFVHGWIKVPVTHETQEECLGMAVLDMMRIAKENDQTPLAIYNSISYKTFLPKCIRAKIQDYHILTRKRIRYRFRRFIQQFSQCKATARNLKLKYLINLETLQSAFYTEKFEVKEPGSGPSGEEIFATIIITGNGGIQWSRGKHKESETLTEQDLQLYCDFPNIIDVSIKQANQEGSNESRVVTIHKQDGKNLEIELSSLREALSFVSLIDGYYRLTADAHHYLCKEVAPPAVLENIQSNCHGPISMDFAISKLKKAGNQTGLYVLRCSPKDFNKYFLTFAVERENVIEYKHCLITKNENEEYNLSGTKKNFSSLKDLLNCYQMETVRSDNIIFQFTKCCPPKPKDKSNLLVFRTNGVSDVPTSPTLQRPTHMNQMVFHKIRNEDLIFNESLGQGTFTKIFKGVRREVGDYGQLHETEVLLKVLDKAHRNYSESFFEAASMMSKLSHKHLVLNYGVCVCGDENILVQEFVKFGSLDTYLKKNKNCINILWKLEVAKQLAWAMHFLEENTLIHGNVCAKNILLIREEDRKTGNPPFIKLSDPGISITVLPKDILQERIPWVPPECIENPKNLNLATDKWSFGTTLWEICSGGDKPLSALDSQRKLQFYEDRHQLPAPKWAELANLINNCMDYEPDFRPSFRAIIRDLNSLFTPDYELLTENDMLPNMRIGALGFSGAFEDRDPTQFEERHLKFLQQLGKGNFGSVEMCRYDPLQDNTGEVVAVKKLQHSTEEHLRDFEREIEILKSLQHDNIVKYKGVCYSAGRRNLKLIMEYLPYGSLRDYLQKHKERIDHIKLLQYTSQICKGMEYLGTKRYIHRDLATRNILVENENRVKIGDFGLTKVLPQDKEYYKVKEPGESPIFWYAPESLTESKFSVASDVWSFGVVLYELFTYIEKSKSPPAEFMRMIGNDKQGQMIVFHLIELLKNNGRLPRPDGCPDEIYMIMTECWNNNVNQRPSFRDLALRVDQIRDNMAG

| SMILES | inhibition at 0.1 µM (JAK1) | inhibition at 1 µM (JAK1) | EC50 (Mda-Mb-231 cells) | other results |
| --- | --- | --- | --- | --- |
| Cc1ccc(NC(=O)c2cccc(C(F)(F)F)c2)cc1N1CCc2nc(Nc3ccc(OCCN4CCCC4)cc3)ncc2C1 [Compound 9, N-(4-Methyl-3-{2-[4-(2-pyrrolidin-1-yl-ethoxy)-phenylamino]-7,8-dihydro-5H-pyrido[4,3-d]pyrimidin-6-yl}-phenyl)-3-trifluoromethyl-benzamide] | 58% | 85% | – | – |
| Cc1ccc(NC(=O)c2cccc(C(F)(F)F)c2)cc1N1CCc2nc(Nc3ccncc3)ncc2C1 [Compound 15, N-{4-Methyl-3-[2-(pyridin-4-ylamino)-7,8-dihydro-5H-pyrido[4,3-d]pyrimidin-6-yl]-phenyl}-3-trifluoromethyl-benzamide] | 49% | 73% | – | – |
| Cc1ccc(NC(=O)c2cccc(C(F)(F)F)c2)cc1N1CCc2nc(Nc3ccc4c(c3)CCC(=O)N4)ncc2C1 [Compound 18, N-{4-Methyl-3-[2-(2-oxo-1,2,3,4-tetrahydro-quinolin-6-ylamino)-7,8-dihydro-5H-pyrido[4,3-d]pyrimidin-6-yl]-phenyl}-3-trifluoromethyl-benzamide] | 82% | 89% | – | – |
| Cc1ccc(NC(=O)c2cccc(C(F)(F)F)c2)cc1N1CCc2nc(Nc3cccnc3)ncc2C1 [Compound 23, N-{4-Method-3-[2-(pyridin-3-ylamino)-7,8-dihydro-5H-pyrido[4,3-d]pyrimidin-6-yl]-phenyl}-3-trifluoromethyl-benzamide] | 84% | 88% | – | – |
| Cc1ccc(NC(=O)c2cccc(C(F)(F)F)c2)cc1N1CCc2nc(Nc3ccnc(Cl)c3)ncc2C1 [Compound 25, N-{3-[2-(2-Chloro-pyridin-4-ylamino)-7,8-dihydro-5H-pyrido[4,3-d]pyrimidin-6-yl]-4-methyl-phenyl}-3-trifluoromethyl-benzamide] | 58% | 96% | – | – |
| Cc1ccc(NC(=O)c2cccc(C(F)(F)F)c2)cc1N1CCc2nc(Nc3ccncc3)ncc2C1=O [Compound 26, N-{4-Methyl-3-[5-oxo-2-(pyridin-4-ylamino)-7,8-dihydro-5H-pyrido[4,3-d]pyrimidin-6-yl]-phenyl}-3-trifluoromethyl-benzamide] | 57% | 79% | – | – |
| Cc1ccc(C(=O)Nc2cccc(C(F)(F)F)c2)cc1N1CCc2nc(Nc3ccc(Cl)cc3)ncc2C1 [Compound 28] | – | – | – | JAK1 % inhibition at 100 nM (JAK1; 100 nM): 66%; JAK1 % inhibition at 1 μM (JAK1; 1 μM): 79% |
| Cc1ccc(NC(=O)c2cccc(C(F)(F)F)c2)cc1N1CCc2nc(Nc3ccc(C(=O)N4CCN(C)CC4)cc3)ncc2C1=O [Compound 75, N-(4-Methyl-3-{2-[4-(4-methyl-piperazine-1-carbonyl)-phenylamino]-5-oxo-7,8-dihydro-5H-pyrido[4,3-d]pyrimidin-6-yl}-phenyl)-3-trifluoromethylbenza-mide] | – | – | 4670 nM | IC50 (c-Src): 19 nM; inhibition at 0.1 µM (JAK2): 83%; inhibition at 1 µM (JAK2): 97%; EC50 (A431 cancer cell line): 1060 nM |
| Cc1ccc(NC(=O)c2cccc(C(F)(F)F)c2)cc1N1CCc2nc(Nc3ccc(C(=O)NC4CCN(C)CC4)cc3)ncc2C1 [Compound 92] | – | – | 5 nM | EC50 (A431 cancer cell line): 26 nM; IC50 (pStat3): 26 nM |
| Cc1ccc(NC(=O)c2cccc(C(F)(F)F)c2)cc1N1CCc2nc(Nc3ccc(N4CCNCC4)cc3)ncc2C1=O [Compound 178, N-{4-Methyl-3-[5-oxo-2-(4-piperazin-1-yl-phenylamino)-7,8-dihydro-5H-pyrido[4,3-d]pyrimidin-6-yl]-phenyl}-3-trifluoromethyl-benzamide] | – | – | 1750 nM | IC50 (c-Src): 17 nM; inhibition at 0.1 µM (c-Src; read-out: c-SRC % inhibition at 100 nM, 100 nM): 77%; inhibition at 1 µM (c-Src; read-out: c-SRC % inhibition at 1 μM, 1 μM): 90%; IC50 (JAK2): 7 nM; inhibition at 0.1 µM (JAK2): 91%; inhibition at 1 µM (JAK2): 92%; IC50 (pStat3): 150 nM |
